Where two headings read alike, the source gives them in different places.

Data set [1] has as its system abdominal muscle contractions (writhing) induced by 0.6% acetic acid. Put plainly: acetic acid writhing test of analgesia in mice. Conditions: 0.6% acetic acid i.p. 30 min later, male mice; for Ave. # of writhes: 15-minute count. The format is in vivo, Crl:CFW (SW) BR mice. How it is done:
In the animal studies presented in Examples 5-7, tramadol and dextro-propoxyphene were administered neat (undiluted), or were diluted with diluted with saline (i.e. 0.9% Sodium Chloride for injection) in order to achieve the desired dose volumes. Fresh solutions were prepared for each concentration (of each compound) prior to administration.
Acetic acid was used to assess experimental pain or “writhing.” Specifically, thirty minutes after dosing, the writhing-induction agent (0.6% Acetic Acid) was administered to all experimental groups by intraperitoneal injection at a dose volume of 10 mL/kg.
Crl:CFW® (SW) BR mice, from Charles River Laboratories were used as the animal model to test the analgesia of the tramadol/propoxyphene co-formulations. The test animals were approximately 4 weeks of age on arrival and each animals weighed approximately 22 to 28 g within 3 days of arrival. […] Animals considered suitable for study were weighed prior to treatment and randomized, by sex, into treatment groups using a standard, by weight, block randomization procedure.
The protocols employed assessed the qualitative and quantitative changes in abdominal muscle contractions (writhing) induced after the […] administration of a noxious chemical stimulus, 0.6% acetic acid, in mice. The degree and amount of contractile abdominal activity is a measure of “experimentally-induced pain”. A decrease in the amount of writhing with prior administration of a test article is an experimental measure of “analgesia.”
Dose-response functions were generated for each of the two (2) test articles (tramadol, dextro-propoxyphene,). ED50 values for analgesic activity were estimated using a least squares linear regression analysis procedure using PHARM/PCS or SAS.
The test article, positive control, and vehicle were administered to all groups as a single subcutaneous injection in the scapular region on the back at a dose volume of 10 mL/kg and at the dose levels as presented in Table 1 below.
Thirty minutes after dosing, the writhing-induction article, 0.6% acetic acid, was administered to all groups by intraperitoneal injection at a dose volume of 10 mL/kg.
Immediately after administration of the writhing-induction article, animals were placed into a poly-observation chamber and a 15-minute evaluation period was initiated. During the 15-minute evaluation period, the number of “writhes” that occurred were recorded. For scoring purposes, a “writhe” was indicated by whole body stretching or contraction of the abdomen, further described as waves of contraction of the abdominal musculature, twisting and turning of the trunk, and hind-limb extension.
Background: In writhing tests, fewer writhes than in controls are read as antinociception.

The target in data set [2] is mu receptors of the CNS (Homo sapiens, UniProt P35372). Conditions: relative to morphine; cited from earlier work.
For data set [3], the system named is opioid receptors. The settings on record: in words; cited from earlier work.
The conditions of data set [4]: cited from earlier work; for half-life: after a single oral dose of 100 mg tramadol, 2-compartmental elimination; for accumulation: during multiple dose treatment with tramadol.
For data set [5], the system named is NMDA receptor. Conditions: in words, a recent study; cited from earlier work.
For data set [6] the following is noted: in vivo; cited from earlier work.
For data set [7] the following is noted: in words; cited from earlier work.

Chain of mu receptors of the CNS (P35372 whole entry): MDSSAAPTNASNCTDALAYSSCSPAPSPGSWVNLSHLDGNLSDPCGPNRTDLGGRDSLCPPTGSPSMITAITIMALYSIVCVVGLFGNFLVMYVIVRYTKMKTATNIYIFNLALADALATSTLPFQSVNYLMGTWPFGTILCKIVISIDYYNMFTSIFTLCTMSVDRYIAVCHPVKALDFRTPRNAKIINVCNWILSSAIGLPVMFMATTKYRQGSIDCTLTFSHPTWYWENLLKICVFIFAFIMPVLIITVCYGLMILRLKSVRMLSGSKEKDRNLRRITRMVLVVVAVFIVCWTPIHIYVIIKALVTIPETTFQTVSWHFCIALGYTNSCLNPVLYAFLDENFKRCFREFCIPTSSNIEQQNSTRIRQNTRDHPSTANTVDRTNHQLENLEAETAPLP

As for `COc1cccc([C@]2(O)CCCC[C@H]2CN(C)C)c1` (racemic) [Tramadol, cyclohexanol, 2-((dimethylamino)methyl)-1-(3-methoxyphenyl)-, cis-(+−)-], in data set [1] (0.32 mg/kg single s.c. dose), the “Ave. # of writhes” value came to 54.6 and the “% Analgesia” value is −3.21%. Further, in data set [1] (1.0 mg/kg single s.c. dose), the “Ave. # of writhes” value was determined as 55.1 and the “% Analgesia” value was −4.16%. Further, in data set [1] (3.2 mg/kg single s.c. dose), the “Ave. # of writhes” value is 31.7 and the “% Analgesia” value amounted to 40.08%. Also, in data set [2], the “affinity for mu receptors of the CNS, times lower than that of morphine” value is on record as 6000 times. The “affinity for opioid receptors” value in data set [3] is given as “low affinity”. Further, in data set [4], the half-life (in general, the time in which the quantity being followed falls by half) is 5.1 h and the accumulation result is given as “approximately 2 fold”. Besides, in data set [4] (after a single oral dose of tramadol 100 mg), the “duration of the analgesic effect” value is on record as “about 6 hours”. Further, in data set [4] (after oral administration), the bioavailability (commonly the share of a dose that reaches the circulation, judged against a reference dose that is usually intravenous) is 68% and the “time to peak serum concentrations” value was not above 2 h. In addition, the “time to peak plasma levels” value in data set [4] (following oral administration) is not above 2 h.
As for `CN(C)CC1CCCCC1(O)c1cccc(O)c1` (centres unmarked) [M1 derivative, O-demethyl tramadol], in data set [3], the “affinity for opioid receptors” value is “higher affinity for opioid receptors than the parent drug”. Besides, in data set [4], the half-life is 9 h and the accumulation result is given as “approximately 2 fold”.
As to `CCC(=O)OC(Cc1ccccc1)(c1ccccc1)C(C)CN(C)C` (stereo not drawn) [Propoxyphene, 2-Butanol, 4-(dimethylamino)-3-methyl-1,2-diphenyl-, propionate, (+)-], the figures for the “Ave. # of writhes” value in data set [1] (1.0 mg/kg single s.c. dose), in data set [1] (3.2 mg/kg single s.c. dose) and in data set [1] (10.0 mg/kg single s.c. dose) were 59.4, 45.4 and 26.7, respectively. The results for the “% Analgesia” value in data set [1] (1.0 mg/kg single s.c. dose), in data set [1] (3.2 mg/kg single s.c. dose) and in data set [1] (10.0 mg/kg single s.c. dose) were −12.29%, 14.18% and 49.53%, respectively. Besides, the “activity at the NMDA receptor” value in data set [5] was “antagonist activity”. Moreover, in data set [6], the half-life is 6 to 12 h.
Turning to `CCC(=O)O[C@](Cc1ccccc1)(c1ccccc1)[C@H](C)CNC` [norpropoxyphene], the analgesic properties result in data set [7] is reported as “very weak analgesic properties”.

(Values after US20050089558A1 (Alamo Pharmaceuticals, LLC, priority 2003, published 2005).)
